# Measurements taken from US6737383B1, “Herbicidal oxadiazolidines” (priority 1999, dated 2004).
# Key:
# [1] = system: rape; experiment: Test B pre/postemergence rape; type: in vivo, Brassica napus
# Outline: (§1)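 Herbicidal effect was estimated by eye on a ten-point control scale after plants spent twelve to sixteen days in a greenhouse following soil or foliar treatment. Foliar sprays targeted plants at one to four leaves; all doses were formulated in a non-phytotoxic solvent with surfactant.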
# [2] = system: bamyardgrass; experiment: Test B flood test barnyardgrass; type: in vivo, Echinochloa crus-galli
# Outline: (§2)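 Read-out is a visual response score from 0 (no effect) to 10 (complete control), assigned by comparison with untreated controls. Treatment was applied at the 2-leaf stage, and plants stayed in the greenhouse for twelve to sixteen days before scoring.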
# [3] = system: sugar beet; experiment: Test B pre/postemergence sugar beet; type: in vivo, Beta vulgaris
# Outline: as §1
# [4] = system: rice; experiment: Test B flood test rice; type: in vivo, Oryza sativa
# Outline: as §2
# [5] = system: giant foxtail; experiment: Test B pre/postemergence giant foxtail; type: in vivo, Setaria faberii
# Outline: as §1
# [6] = system: duck salad; experiment: Test B flood test duck salad; type: in vivo, Heteranthera limosa
# Outline: as §2
# [7] = system: pigweed; experiment: Test B pre/postemergence pigweed; type: in vivo, Amaranthus retroflexus; conditions: for Plant response rating, Redroot pigweed: Postemergence
# Outline: as §1
# [8] = system: corn; experiment: Test B pre/postemergence corn; type: in vivo, Zea mays
# Outline: as §1
# [9] = system: surinam grass; experiment: Test B pre/postemergence surinam grass; type: in vivo, Brachiaria decumbens
# Outline: as §1
# [10] = system: cocklebur; experiment: Test B pre/postemergence cocklebur; type: in vivo, Xanthium strumarium
# Outline: as §1
# [11] = system: velvetleaf; experiment: Test B pre/postemergence velvetleaf; type: in vivo, Abutilon theophrasti; conditions: for Plant response rating, Velvetleaf: Postemergence
# Outline: as §1
# [12] = system: bedstraw; experiment: Test B pre/postemergence bedstraw; type: in vivo, Galium aparine
# Outline: as §1
# [13] = system: blackgrass; experiment: Test B pre/postemergence blackgrass; type: in vivo, Alopecurus myosuroides
# Outline: as §1
# [14] = system: purple nutsedge; experiment: Test B pre/postemergence purple nutsedge; type: in vivo, Cyperus rotundus
# Outline: as §1
# [15] = system: morningglory; experiment: Test B pre/postemergence morningglory; type: in vivo, Ipomoea hederacea
# Outline: as §1
# [16] = Postemergence, Rate 62 g/ha, scale of 0 to 10, 0 is no effect, 10 is complete control
# [17] = Postemergence, Rate 125 g/ha, scale 0 to 10, 0 is no effect, 10 is complete control
# [18] = Postemergence, Rate 500 g/ha, scale of 0 to 10 where 0 is no effect and 10 is complete control
# [19] = Preemergence, Rate 62 g/ha, scale 0 to 10 (0 no effect, 10 complete control)
# [20] = Preemergence, Rate 125 g/ha, scale 0 to 10, 0 is no effect, 10 is complete control
# [21] = Preemergence, Rate 500 g/ha, scale of 0 to 10 where 0 is no effect and 10 is complete control
# [22] = Rate 250 g/ha, Postemergence, scale of 0 to 10 where 0 is no effect and 10 is complete control
# [23] = Rate 62 g/ha, flood test species, Pre-emergence, visual evaluation after twelve to sixteen days
# [24] = Rate 125 g/ha, under heading Pre-emergence, flood test species, visual evaluation after twelve to sixteen days
# [25] = Rate 250 g/ha, Pre-emergence (flood test species), scale 0 to 10, 0 is no effect, 10 is complete control
# [26] = Rate 500 g/ha, Pre-emergence section of Table B, 0 to 10 scale (0 no effect, 10 complete control)
# [27] = Rate 500 g/ha, scale of 0 to 10 where 0 is no effect and 10 is complete control
# [28] = Rate 250 g/ha, scale of 0 to 10 where 0 is no effect and 10 is complete control
smiles,measurement,setting,value
CC(C)N(C(=O)n1oc(=O)n(C[Si](C)(C)C)c1=O)c1ccccc1 [Compound 577],Rape plant response rating,[1]; [16],0
same,Rape plant response rating,[1]; [17],0
same,"Plant response rating, Rape",[1]; [18],0
same,Rape plant response rating,[1]; [19],0
same,Rape plant response rating,[1]; [20],0
same,Rape plant response rating (0 to 10 scale),"[1]; Preemergence, Rate 250 g/ha",0
same,Rape plant response rating,[1]; [21],0
same,"Plant response rating, Rape",[1]; [22],0
same,"Plant response rating, Barnyardgrass (0 to 10 scale, 0 is no effect, 10 is complete control)",[2]; [23],0
same,"Barnyardgrass plant response rating (0 to 10 scale, 0 is no effect, 10 is complete control)",[2]; [24],0
same,Barnyardgrass plant response rating,[2]; [25],0
same,Barnyardgrass plant response rating,[2]; [26],0
same,Sugarbeets plant response rating,[3]; [19],0
same,Sugarbeets plant response rating,[3]; [20],0
same,Sugarbeets plant response rating (0 to 10 scale),"[3]; Preemergence, Rate 250 g/ha",0
same,Sugarbeets plant response rating,[3]; [21],0
same,"Plant response rating, Sugarbeets",[3]; [22],0
same,"Plant response rating, Rice (0 to 10 scale, 0 is no effect, 10 is complete control)",[4]; [23],0
same,"Rice plant response rating (0 to 10 scale, 0 is no effect, 10 is complete control)",[4]; [24],0
same,Rice plant response rating,[4]; [25],0
same,Rice plant response rating,[4]; [26],0
same,Giant foxtail plant response rating,[5]; [16],0
same,Giant foxtail plant response rating,[5]; [17],2
same,"Plant response rating, Giant foxtail",[5]; [18],8
same,Giant foxtail plant response rating,[5]; [19],7
same,Giant foxtail plant response rating,[5]; [20],8
same,Giant foxtail plant response rating (0 to 10 scale),"[5]; Preemergence, Rate 250 g/ha",9
same,Giant foxtail plant response rating,[5]; [21],10
same,"Plant response rating, Giant foxtail",[5]; [22],2
same,"Plant response rating, Ducksalad (0 to 10 scale, 0 is no effect, 10 is complete control)",[6]; [23],0
same,"Ducksalad plant response rating (0 to 10 scale, 0 is no effect, 10 is complete control)",[6]; [24],0
same,Ducksalad plant response rating,[6]; [25],0
same,Ducksalad plant response rating,[6]; [26],0
same,"Plant response rating, Redroot pigweed",[7]; [27],0
same,Redroot pigweed plant response rating,[7]; [19],0
same,Redroot pigweed plant response rating,[7]; [20],0
same,Redroot pigweed plant response rating (0 to 10 scale),"[7]; Preemergence, Rate 250 g/ha",0
same,Redroot pigweed plant response rating,[7]; [21],0
same,"Plant response rating, Redroot pigweed",[7]; [28],0
same,Corn plant response rating,[8]; [16],0
same,Corn plant response rating,[8]; [17],0
same,"Plant response rating, Corn",[8]; [18],2
same,Corn plant response rating,[8]; [19],2
same,Corn plant response rating,[8]; [20],2
same,Corn plant response rating (0 to 10 scale),"[8]; Preemergence, Rate 250 g/ha",2
same,Corn plant response rating,[8]; [21],3
same,"Plant response rating, Corn",[8]; [22],0
same,B. signalgrass plant response rating,[9]; [16],0
same,B. signalgrass plant response rating,[9]; [17],0
same,"Plant response rating, B. signalgrass",[9]; [18],3
same,B. signalgrass plant response rating,[9]; [19],0
same,B. signalgrass plant response rating,[9]; [20],3
same,"B. signalgrass plant response rating (0 to 10 scale, 0 is no effect, 10 is complete control)","[9]; Preemergence, Rate 250 g/ha",4
same,B. signalgrass plant response rating,[9]; [21],7
same,"Plant response rating, B. signalgrass",[9]; [22],0
same,Cocklebur plant response rating,[10]; [16],0
same,Cocklebur plant response rating,[10]; [17],0
same,"Plant response rating, Cocklebur",[10]; [18],2
same,Cocklebur plant response rating,[10]; [19],0
same,Cocklebur plant response rating,[10]; [20],0
same,Cocklebur plant response rating (0 to 10 scale),"[10]; Preemergence, Rate 250 g/ha",0
same,Cocklebur plant response rating,[10]; [21],0
same,"Plant response rating, Cocklebur",[10]; [22],0
same,"Plant response rating, Velvetleaf",[11]; [27],0
same,Velvetleaf plant response rating,[11]; [19],4
same,Velvetleaf plant response rating,[11]; [20],3
same,Velvetleaf plant response rating (0 to 10 scale),"[11]; Preemergence, Rate 250 g/ha",3
same,Velvetleaf plant response rating,[11]; [21],4
same,"Plant response rating, Velvetleaf",[11]; [28],0
same,Bedstraw plant response rating,[12]; [17],4
same,Bedstraw plant response rating,[12]; [19],0
same,Bedstraw plant response rating,[12]; [20],0
same,Bedstraw plant response rating (0 to 10 scale),"[12]; Preemergence, Rate 250 g/ha",0
same,Bedstraw plant response rating,[12]; [21],0
same,Blackgrass plant response rating,[13]; [16],0
same,Blackgrass plant response rating,[13]; [17],0
same,"Plant response rating, Blackgrass",[13]; [18],0
same,Blackgrass plant response rating,[13]; [19],0
same,Blackgrass plant response rating,[13]; [20],0
same,Blackgrass plant response rating (0 to 10 scale),"[13]; Preemergence, Rate 250 g/ha",3
same,Blackgrass plant response rating,[13]; [21],6
same,"Plant response rating, Blackgrass",[13]; [22],0
same,Nutsedge plant response rating,[14]; [16],0
same,"Plant response rating, Nutsedge",[14]; [18],0
same,Nutsedge plant response rating,[14]; [19],0
same,Nutsedge plant response rating,[14]; [20],0
same,Nutsedge plant response rating (0 to 10 scale),"[14]; Preemergence, Rate 250 g/ha",0
same,Nutsedge plant response rating,[14]; [21],0
same,Morningglory plant response rating,[15]; [16],6
same,Morningglory plant response rating,[15]; [17],9
same,"Plant response rating, Morningglory",[15]; [18],10
same,Morningglory plant response rating,[15]; [19],0
same,Morningglory plant response rating,[15]; [20],0
same,Morningglory plant response rating (0 to 10 scale),"[15]; Preemergence, Rate 250 g/ha",8
same,Morningglory plant response rating,[15]; [21],9
same,"Plant response rating, Morningglory",[15]; [22],10
